{"source": "patent US9579314B2", "about": "(priority 2015, dated 2017)", "key": {"Human M3 receptor": {"target": "Human M3 receptor (Homo sapiens, UniProt P20309)", "sequence (P20309 whole entry)": "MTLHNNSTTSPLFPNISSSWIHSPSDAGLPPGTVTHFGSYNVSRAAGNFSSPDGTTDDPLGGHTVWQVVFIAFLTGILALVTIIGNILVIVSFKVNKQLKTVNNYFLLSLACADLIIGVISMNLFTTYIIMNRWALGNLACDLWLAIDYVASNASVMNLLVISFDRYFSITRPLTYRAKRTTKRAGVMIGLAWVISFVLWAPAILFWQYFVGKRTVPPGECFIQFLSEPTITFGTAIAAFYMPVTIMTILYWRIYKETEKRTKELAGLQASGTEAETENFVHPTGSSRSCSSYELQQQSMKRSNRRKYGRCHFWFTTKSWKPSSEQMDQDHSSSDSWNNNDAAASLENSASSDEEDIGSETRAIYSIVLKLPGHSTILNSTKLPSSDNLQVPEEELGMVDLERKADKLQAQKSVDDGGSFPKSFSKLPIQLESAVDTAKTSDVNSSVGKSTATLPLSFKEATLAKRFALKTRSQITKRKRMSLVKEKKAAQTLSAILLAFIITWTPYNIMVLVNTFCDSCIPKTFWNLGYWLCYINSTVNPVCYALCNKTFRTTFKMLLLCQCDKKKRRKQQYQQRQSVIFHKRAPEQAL", "details": "read-out: M3 binding affinity"}, "Human β2 adrenoceptor": {"target": "Human β2 adrenoceptor (Homo sapiens, UniProt P07550)", "sequence (P07550 whole entry)": "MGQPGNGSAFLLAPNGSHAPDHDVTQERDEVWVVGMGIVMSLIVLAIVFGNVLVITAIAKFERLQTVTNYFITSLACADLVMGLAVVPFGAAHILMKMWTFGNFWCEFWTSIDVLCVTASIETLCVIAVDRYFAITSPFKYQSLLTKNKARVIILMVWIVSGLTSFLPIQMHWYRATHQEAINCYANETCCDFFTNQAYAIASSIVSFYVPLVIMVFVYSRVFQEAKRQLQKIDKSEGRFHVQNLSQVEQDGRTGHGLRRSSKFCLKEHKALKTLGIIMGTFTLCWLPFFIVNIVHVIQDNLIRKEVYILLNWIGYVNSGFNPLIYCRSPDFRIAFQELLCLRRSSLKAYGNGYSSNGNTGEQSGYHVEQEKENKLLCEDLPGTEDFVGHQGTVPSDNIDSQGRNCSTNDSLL", "details": "read-out: B2 binding affinity"}}, "data": [{"smiles": "O=C(c1ccc(CNC[C@H](O)c2ccc(O)c3[nH]c(=O)ccc23)cc1)N1C[C@H]2CCN(C(=O)COc3cccc([C@](O)(C(=O)OCC4CCN(Cc5ccccc5)CC4)c4ccccc4)c3)[C@H]2C1", "note": "[Compound 74, (1-benzylpiperidin-4-yl)methyl (S)-2-hydroxy-2-(3-(2-((3aR,6aR)-5-(4-((((R)-2-hydroxy-2-(8-hydroxy-2-oxo-1,2-dihydroquinolin-5-yl)ethyl)amino)methyl)benzoyl)hexahydropyrrolo[3,4-b]pyrrol-1(2H)-yl)-2-oxoethoxy)phenyl)-2-phenylacetate]", "values": [{"measurement": "IC50", "setting": "Human M3 receptor", "value": "0.3 to 3", "unit": "nM"}, {"measurement": "IC50", "setting": "Human β2 adrenoceptor", "value": "0.3 to 3", "unit": "nM"}]}, {"smiles": "O=C(N[C@@H]1CCCN(C(=O)COc2cccc([C@](O)(C(=O)OCC3CCN(Cc4ccccc4)CC3)c3ccccc3)c2)C1)c1ccc(CNC[C@H](O)c2ccc(O)c3[nH]c(=O)ccc23)cc1", "note": "[Compound 75, (1-benzylpiperidin-4-yl)methyl (S)-2-hydroxy-2-(3-(2-((R)-3-(4-((((R)-2-hydroxy-2-(8-hydroxy-2-oxo-1,2-dihydroquinolin-5-yl)ethyl)amino)methyl)benzamido)piperidin-1-yl)-2-oxoethoxy)phenyl)-2-phenylacetate]", "values": [{"measurement": "IC50", "setting": "Human M3 receptor", "value": "0.3 to 3", "unit": "nM"}, {"measurement": "IC50", "setting": "Human β2 adrenoceptor", "value": "> 3", "unit": "nM"}]}, {"smiles": "O=C(N[C@@H]1CCN(C(=O)COc2cccc([C@](O)(C(=O)OCC3CCN(Cc4ccccc4)CC3)c3ccccc3)c2)C1)c1ccc(CNC[C@H](O)c2ccc(O)c3[nH]c(=O)ccc23)cc1", "note": "[Compound 76, (1-benzylpiperidin-4-yl)methyl (S)-2-hydroxy-2-(3-(2-((R)-3-(4-((((R)-2-hydroxy-2-(8-hydroxy-2-oxo-1,2-dihydroquinolin-5-yl)ethyl)amino)methyl)benzamido)pyrrolidin-1-yl)-2-oxoethoxy)phenyl)-2-phenylacetate]", "values": [{"measurement": "IC50", "setting": "Human M3 receptor", "value": "0.3 to 3", "unit": "nM"}, {"measurement": "IC50", "setting": "Human β2 adrenoceptor", "value": "0.3 to 3", "unit": "nM"}]}, {"smiles": "O=C(c1ccc(CNC[C@H](O)c2ccc(O)c3[nH]c(=O)ccc23)cc1)N1C[C@@H]2CCN(C(=O)COc3cccc([C@](O)(C(=O)OCC4CCN(Cc5ccccc5)CC4)c4ccccc4)c3)[C@@H]2C1", "note": "[Compound 77, (1-benzylpiperidin-4-yl)methyl (S)-2-hydroxy-2-(3-(2-((3aS,6aS)-5-(4-((((R)-2-hydroxy-2-(8-hydroxy-2-oxo-1,2-dihydroquinolin-5-yl)ethyl)amino)methyl)benzoyl)hexahydropyrrolo[3,4-b]pyrrol-1(2H)-yl)-2-oxoethoxy)phenyl)-2-phenylacetate]", "values": [{"measurement": "IC50", "setting": "Human M3 receptor", "value": "0.3 to 3", "unit": "nM"}, {"measurement": "IC50", "setting": "Human β2 adrenoceptor", "value": "0.3 to 3", "unit": "nM"}]}, {"smiles": "COc1cc(C(=O)N2CC(NC(=O)COc3cccc([C@](O)(C(=O)OCC4CCN(Cc5ccccc5)CC4)c4ccccc4)c3)C2)ccc1CNC[C@H](O)c1ccc(O)c2[nH]c(=O)ccc12", "note": "[Compound 78, (1-benzylpiperidin-4-yl)methyl (S)-2-hydroxy-2-(3-(2-((1-(4-((((R)-2-hydroxy-2-(8-hydroxy-2-oxo-1,2-dihydroquinolin-5-yl)ethyl)amino)methyl)-3-methoxybenzoyl)azetidin-3-yl)amino)-2-oxoethoxy)phenyl)-2-phenylacetate]", "values": [{"measurement": "IC50", "setting": "Human M3 receptor", "value": "< 0.3", "unit": "nM"}, {"measurement": "IC50", "setting": "Human β2 adrenoceptor", "value": "< 0.3", "unit": "nM"}]}, {"smiles": "COc1cc(C(=O)N2CCC3(CCN(C(=O)COc4cccc([C@](O)(C(=O)OCC5CCN(Cc6ccccc6)CC5)c5ccccc5)c4)CC3)CC2)ccc1CNC[C@H](O)c1ccc(O)c2[nH]c(=O)ccc12", "note": "[Compound 79, (1-benzylpiperidin-4-yl)methyl (S)-2-hydroxy-2-(3-(2-(9-(4-((((R)-2-hydroxy-2-(8-hydroxy-2-oxo-1,2-dihydroquinolin-5-yl)ethyl)amino)methyl)-3-methoxybenzoyl)-3,9-diazaspiro[5.5]undecan-3-yl)-2-oxoethoxy)phenyl)-2-phenylacetate]", "values": [{"measurement": "IC50", "setting": "Human M3 receptor", "value": "< 0.3", "unit": "nM"}, {"measurement": "IC50", "setting": "Human β2 adrenoceptor", "value": "< 0.3", "unit": "nM"}]}, {"smiles": "COc1cc(C(=O)NCC2CCN(C(=O)COc3cccc([C@](O)(C(=O)OCC4CCN(Cc5ccccc5)CC4)c4ccccc4)c3)CC2)ccc1CNC[C@H](O)c1ccc(O)c2[nH]c(=O)ccc12", "note": "[Compound 80, (1-benzylpiperidin-4-yl)methyl (S)-2-hydroxy-2-(3-(2-(4-((4-((((R)-2-hydroxy-2-(8-hydroxy-2-oxo-1,2-dihydroquinolin-5-yl)ethyl)amino)methyl)-3-methoxybenzamido)methyl)piperidin-1-yl)-2-oxoethoxy)phenyl)-2-phenylacetate]", "values": [{"measurement": "IC50", "setting": "Human M3 receptor", "value": "0.3 to 3", "unit": "nM"}, {"measurement": "IC50", "setting": "Human β2 adrenoceptor", "value": "< 0.3", "unit": "nM"}]}, {"smiles": "COc1cc(CNC[C@H](O)c2ccc(O)c3[nH]c(=O)ccc23)ccc1C(=O)N1CCC2(CCN(C(=O)COc3cccc([C@](O)(C(=O)OCC4CCN(Cc5ccccc5)CC4)c4ccccc4)c3)CC2)CC1", "note": "[Compound 81, (1-benzylpiperidin-4-yl)methyl (S)-2-hydroxy-2-(3-(2-(9-(4-((((R)-2-hydroxy-2-(8-hydroxy-2-oxo-1,2-dihydroquinolin-5-yl)ethyl)amino)methyl)-2-methoxybenzoyl)-3,9-diazaspiro[5.5]undecan-3-yl)-2-oxoethoxy)phenyl)-2-phenylacetate]", "values": [{"measurement": "IC50", "setting": "Human M3 receptor", "value": "0.3 to 3", "unit": "nM"}, {"measurement": "IC50", "setting": "Human β2 adrenoceptor", "value": "0.3 to 3", "unit": "nM"}]}, {"smiles": "COc1cc(CNC[C@H](O)c2ccc(O)c3[nH]c(=O)ccc23)ccc1C(=O)N1CC(NC(=O)COc2cccc([C@](O)(C(=O)OCC3CCN(Cc4ccccc4)CC3)c3ccccc3)c2)C1", "note": "[Compound 82, (1-benzylpiperidin-4-yl)methyl (S)-2-hydroxy-2-(3-(2-((1-(4-((((R)-2-hydroxy-2-(8-hydroxy-2-oxo-1,2-dihydroquinolin-5-yl)ethyl)amino)methyl)-2-methoxybenzoyl)azetidin-3-yl)amino)-2-oxoethoxy)phenyl)-2-phenylacetate]", "values": [{"measurement": "IC50", "setting": "Human M3 receptor", "value": "0.3 to 3", "unit": "nM"}, {"measurement": "IC50", "setting": "Human β2 adrenoceptor", "value": "0.3 to 3", "unit": "nM"}]}, {"smiles": "CN(CCNC(=O)c1ccc(CCNC[C@H](O)c2ccc(O)c3[nH]c(=O)ccc23)cc1)C(=O)COc1cccc([C@](O)(C(=O)OCC2CCN(Cc3ccccc3)CC2)c2ccccc2)c1", "note": "[Compound 84, (1-benzylpiperidin-4-yl)methyl (S)-2-hydroxy-2-(3-(2-((2-(4-(2-(((R)-2-hydroxy-2-(8-hydroxy-2-oxo-1,2-dihydroquinolin-5-yl)ethyl)amino)ethyl)benzamido)ethyl)(methyl)amino)-2-oxoethoxy)phenyl)-2-phenylacetate]", "values": [{"measurement": "IC50", "setting": "Human M3 receptor", "value": "> 3", "unit": "nM"}, {"measurement": "IC50", "setting": "Human β2 adrenoceptor", "value": "0.3 to 3", "unit": "nM"}]}, {"smiles": "O=C(COc1cccc([C@](O)(C(=O)OCC2CCN(Cc3ccccc3)CC2)c2ccccc2)c1)NCCCNC(=O)c1ccc(CCNC[C@H](O)c2ccc(O)c3[nH]c(=O)ccc23)cc1", "note": "[Compound 85, (1-benzylpiperidin-4-yl)methyl (S)-2-hydroxy-2-(3-(2-((3-(4-(2-(((R)-2-hydroxy-2-(8-hydroxy-2-oxo-1,2-dihydroquinolin-5-yl)ethyl)amino)ethyl)benzamido)propyl)amino)-2-oxoethoxy)phenyl)-2-phenylacetate]", "values": [{"measurement": "IC50", "setting": "Human M3 receptor", "value": "0.3 to 3", "unit": "nM"}, {"measurement": "IC50", "setting": "Human β2 adrenoceptor", "value": "< 0.3", "unit": "nM"}]}, {"smiles": "O=C(COc1cccc([C@](O)(C(=O)OCC2CCN(Cc3ccccc3)CC2)c2ccccc2)c1)N1CCN(C(=O)c2ccc(CCNC[C@H](O)c3ccc(O)c4[nH]c(=O)ccc34)cc2)CC1", "note": "[Compound 86, (1-benzylpiperidin-4-yl)methyl (S)-2-hydroxy-2-(3-(2-(4-(4-(2-(((R)-2-hydroxy-2-(8-hydroxy-2-oxo-1,2-dihydroquinolin-5-yl)ethyl)amino)ethyl)benzoyl)piperazin-1-yl)-2-oxoethoxy)phenyl)-2-phenylacetate]", "values": [{"measurement": "IC50", "setting": "Human M3 receptor", "value": "0.3 to 3", "unit": "nM"}, {"measurement": "IC50", "setting": "Human β2 adrenoceptor", "value": "< 0.3", "unit": "nM"}]}, {"smiles": "O=C(NCCN(Cc1ccccc1)C(=O)COc1cccc([C@](O)(C(=O)OCC2CCN(Cc3ccccc3)CC2)c2ccccc2)c1)c1ccc(CCNC[C@H](O)c2ccc(O)c3[nH]c(=O)ccc23)cc1", "note": "[Compound 87, (1-benzylpiperidin-4-yl)methyl (S)-2-(3-(2-(benzyl(2-(4-(2-(((R)-2-hydroxy-2-(8-hydroxy-2-oxo-1,2-dihydroquinolin-5-yl)ethyl)amino)ethyl)benzamido)ethyl)amino)-2-oxoethoxy)phenyl)-2-hydroxy-2-phenylacetate]", "values": [{"measurement": "IC50", "setting": "Human M3 receptor", "value": "0.3 to 3", "unit": "nM"}, {"measurement": "IC50", "setting": "Human β2 adrenoceptor", "value": "0.3 to 3", "unit": "nM"}]}, {"smiles": "O=C(COc1cccc([C@](O)(C(=O)OCC2CCN(Cc3ccccc3)CC2)c2ccccc2)c1)N[C@H]1C[C@H](NC(=O)c2ccc(CCNC[C@H](O)c3ccc(O)c4[nH]c(=O)ccc34)cc2)C1", "note": "[Compound 88, (1-benzylpiperidin-4-yl)methyl (S)-2-hydroxy-2-(3-(2-(((1R,3S)-3-(4-(2-(((R)-2-hydroxy-2-(8-hydroxy-2-oxo-1,2-dihydroquinolin-5-yl)ethyl)amino)ethyl)benzamido)cyclobutyl)amino)-2-oxoethoxy)phenyl)-2-phenylacetate]", "values": [{"measurement": "IC50", "setting": "Human M3 receptor", "value": "< 0.3", "unit": "nM"}, {"measurement": "IC50", "setting": "Human β2 adrenoceptor", "value": "0.3 to 3", "unit": "nM"}]}, {"smiles": "O=C(NCC1CCN(C(=O)COc2cccc([C@](O)(C(=O)OCC3CCN(Cc4ccccc4)CC3)c3ccccc3)c2)CC1)c1ccc(CCNC[C@H](O)c2ccc(O)c3[nH]c(=O)ccc23)cc1", "note": "[Compound 89, (1-benzylpiperidin-4-yl)methyl (S)-2-hydroxy-2-(3-(2-(4-((4-(2-(((R)-2-hydroxy-2-(8-hydroxy-2-oxo-1,2-dihydroquinolin-5-yl)ethyl)amino)ethyl)benzamido)methyl)piperidin-1-yl)-2-oxoethoxy)phenyl)-2-phenylacetate]", "values": [{"measurement": "IC50", "setting": "Human M3 receptor", "value": "0.3 to 3", "unit": "nM"}, {"measurement": "IC50", "setting": "Human β2 adrenoceptor", "value": "< 0.3", "unit": "nM"}]}, {"smiles": "O=C(COc1cccc([C@](O)(C(=O)OCC2CCN(Cc3ccccc3)CC2)c2ccccc2)c1)N[C@H]1CC[C@H](NC(=O)c2ccc(CCNC[C@H](O)c3ccc(O)c4[nH]c(=O)ccc34)cc2)CC1", "note": "[Compound 90, (1-benzylpiperidin-4-yl)methyl (S)-2-hydroxy-2-(3-(2-(((1R,4S)-4-(4-(2-(((R)-2-hydroxy-2-(8-hydroxy-2-oxo-1,2-dihydroquinolin-5-yl)ethyl)amino)ethyl)benzamido)cyclohexyl)amino)-2-oxoethoxy)phenyl)-2-phenylacetate]", "values": [{"measurement": "IC50", "setting": "Human M3 receptor", "value": "0.3 to 3", "unit": "nM"}, {"measurement": "IC50", "setting": "Human β2 adrenoceptor", "value": "0.3 to 3", "unit": "nM"}]}, {"smiles": "O=C(COc1cccc([C@](O)(C(=O)OCC2CCN(Cc3ccccc3)CC2)c2ccccc2)c1)NC1CCN(C(=O)c2ccc(CCNC[C@H](O)c3ccc(O)c4[nH]c(=O)ccc34)cc2)CC1", "note": "[Compound 91, (1-benzylpiperidin-4-yl)methyl (S)-2-hydroxy-2-(3-(2-((1-(4-(2-(((R)-2-hydroxy-2-(8-hydroxy-2-oxo-1,2-dihydroquinolin-5-yl)ethyl)amino)ethyl)benzoyl)piperidin-4-yl)amino)-2-oxoethoxy)phenyl)-2-phenylacetate]", "values": [{"measurement": "IC50", "setting": "Human M3 receptor", "value": "0.3 to 3", "unit": "nM"}, {"measurement": "IC50", "setting": "Human β2 adrenoceptor", "value": "< 0.3", "unit": "nM"}]}]}
